Where a SMILES comes first, the peptide text is derived from it. [ ]: non-standard residue; d: D form. Cya = N[C@@H](CS(=O)(=O)O)C(=O)O
Tested on: Primary human immune cells (PBMC)
Experiment: RNA-seq gene expression in primary human immune cells after risuteganib
Assay type: cell-based
Conditions: 100 μM, 8 hours
Experimental: Purpose: In this study, RNA-seq was used to unbiasedly identify the genes regulated by risuteganib exposure in primary human immune cells. Analysis of the specific subset of genes regulated by risuteganib enables identification of biological processes and pathways modulated by the oligopeptide Methods: Primary human immune cells (PBMC) were obtained from a single human donor. The cells were separated into two groups: vehicle or 100 μM risuteganib treatment for 8 hours. After exposure, cells were collected and their total RNA isolated for RNA-seq. The generated reads were then aligned to human reference genome/transcriptome and gene expression quantified for differential expression analysis and fold change calculation. The list of regulated genes was then used to identify biological processes and pathways that are regulated after Risuteganib exposure compared to vehicle control.

C[C@@H](O)[C@H](NC(=O)[C@H](CS(=O)(=O)O)NC(=O)CNC(=O)[C@H](CCCNC(=N)N)NC(=O)CN)C(=O)N1CCC[C@H]1C(=O)O [Risuteganib, Glycyl-L-arginylglycyl-3-sulfo-L-alanyl-L-threonyl-L-proline] (H-GRG[Cya]TP-OH)
ADAM8 Mean Expression Rate (Normalized as Fraction Control): 0.9708 | ADGRB1 Mean Expression Rate (Normalized as Fraction Control): 0.8444 | ADGRE2 Mean Expression Rate (Normalized as Fraction Control): 0.923 | ADGRG3 Mean Expression Rate (Normalized as Fraction Control): 0.8381 | AGER Mean Expression Rate (Normalized as Fraction Control): 0.9136 | AKIRIN2 Mean Expression Rate (Normalized as Fraction Control): 0.9697 | ALDH3B1 Mean Expression Rate (Normalized as Fraction Control): 0.8912 | ANPEP Mean Expression Rate (Normalized as Fraction Control): 0.9082 | ARRB2 Mean Expression Rate (Normalized as Fraction Control): 0.9014 | ARSA Mean Expression Rate (Normalized as Fraction Control): 0.9239 | ATP6V0A1 Mean Expression Rate (Normalized as Fraction Control): 0.9432 | BAG6 Mean Expression Rate (Normalized as Fraction Control): 0.9522 | BCL3 Mean Expression Rate (Normalized as Fraction Control): 0.8918 | BRI3 Mean Expression Rate (Normalized as Fraction Control): 0.9397 | CCL2 Mean Expression Rate (Normalized as Fraction Control): 0.9143 | CCL3L1 Mean Expression Rate (Normalized as Fraction Control): 0.8739 | CCL4L2 Mean Expression Rate (Normalized as Fraction Control): 0.9389 | CCL4 Mean Expression Rate (Normalized as Fraction Control): 0.9605 | CCL22 Mean Expression Rate (Normalized as Fraction Control): 0.9197 | CD14 Mean Expression Rate (Normalized as Fraction Control): 0.8899 | CD63 Mean Expression Rate (Normalized as Fraction Control): 0.9487 | CD300A Mean Expression Rate (Normalized as Fraction Control): 0.9137 | CDC37 Mean Expression Rate (Normalized as Fraction Control): 0.935 | CEBPB Mean Expression Rate (Normalized as Fraction Control): 0.8752 | CKAP4 Mean Expression Rate (Normalized as Fraction Control): 0.9133 | CLCF1 Mean Expression Rate (Normalized as Fraction Control): 0.8975 | CSF1 Mean Expression Rate (Normalized as Fraction Control): 0.8841 | CSF3 Mean Expression Rate (Normalized as Fraction Control): 0.8615 | CSTB Mean Expression Rate (Normalized as Fraction Control): 0.9649 | CTSA Mean Expression Rate (Normalized as Fraction Control): 0.941 | CTSD Mean Expression Rate (Normalized as Fraction Control): 0.9173 | CXCL1 Mean Expression Rate (Normalized as Fraction Control): 0.9216 | CXCL2 Mean Expression Rate (Normalized as Fraction Control): 0.8524 | CXCL16 Mean Expression Rate (Normalized as Fraction Control): 0.9326 | CYB5R3 Mean Expression Rate (Normalized as Fraction Control): 0.9564 | CYBA Mean Expression Rate (Normalized as Fraction Control): 0.8869 | CYP27B1 Mean Expression Rate (Normalized as Fraction Control): 0.8623 | DGAT1 Mean Expression Rate (Normalized as Fraction Control): 0.9308 | DNAJC5 Mean Expression Rate (Normalized as Fraction Control): 0.969 | DOK3 Mean Expression Rate (Normalized as Fraction Control): 0.8929 | DYSF Mean Expression Rate (Normalized as Fraction Control): 0.8587 | ERCC1 Mean Expression Rate (Normalized as Fraction Control): 0.8784 | FABP5 Mean Expression Rate (Normalized as Fraction Control): 0.8713 | FCER1G Mean Expression Rate (Normalized as Fraction Control): 0.9289 | FCER2 Mean Expression Rate (Normalized as Fraction Control): 0.7686 | FCGRT Mean Expression Rate (Normalized as Fraction Control): 0.8558 | FGR Mean Expression Rate (Normalized as Fraction Control): 0.9222 | FOS Mean Expression Rate (Normalized as Fraction Control): 0.822 | GAA Mean Expression Rate (Normalized as Fraction Control): 0.9121 | GALNS Mean Expression Rate (Normalized as Fraction Control): 0.9356 | GLA Mean Expression Rate (Normalized as Fraction Control): 0.9639 | GPR84 Mean Expression Rate (Normalized as Fraction Control): 0.9231 | GPX1 Mean Expression Rate (Normalized as Fraction Control): 0.9254 | GRN Mean Expression Rate (Normalized as Fraction Control): 0.9221 | HEXIM1 Mean Expression Rate (Normalized as Fraction Control): 0.9653 | HIST2H2BE Mean Expression Rate (Normalized as Fraction Control): 0.8527 | HLA-DPB1 Mean Expression Rate (Normalized as Fraction Control): 0.9295 | HLA-DQB1 Mean Expression Rate (Normalized as Fraction Control): 0.9554 | HLX Mean Expression Rate (Normalized as Fraction Control): 0.9084 | HRAS Mean Expression Rate (Normalized as Fraction Control): 0.9238 | IFI30 Mean Expression Rate (Normalized as Fraction Control): 0.8318 | IGHD Mean Expression Rate (Normalized as Fraction Control): 0.8731 | IGLC2 Mean Expression Rate (Normalized as Fraction Control): 0.8467 | IGLV2-23 Mean Expression Rate (Normalized as Fraction Control): 0.4503 | IL1RN Mean Expression Rate (Normalized as Fraction Control): 0.8469 | IL4R Mean Expression Rate (Normalized as Fraction Control): 0.9748 | IL6 Mean Expression Rate (Normalized as Fraction Control): 0.9281 | IRF5 Mean Expression Rate (Normalized as Fraction Control): 0.9293 | ITGAL Mean Expression Rate (Normalized as Fraction Control): 0.9842 | ITGAM Mean Expression Rate (Normalized as Fraction Control): 0.9473 | ITGAX Mean Expression Rate (Normalized as Fraction Control): 0.8865 | KCNAB2 Mean Expression Rate (Normalized as Fraction Control): 0.9588 | KCNN4 Mean Expression Rate (Normalized as Fraction Control): 0.9127 | LFNG Mean Expression Rate (Normalized as Fraction Control): 0.9734 | LIF Mean Expression Rate (Normalized as Fraction Control): 0.7939 | LILRB3 Mean Expression Rate (Normalized as Fraction Control): 0.9396 | LILRB4 Mean Expression Rate (Normalized as Fraction Control): 0.897 | LIMK1 Mean Expression Rate (Normalized as Fraction Control): 0.9285 | LRP1 Mean Expression Rate (Normalized as Fraction Control): 0.9405 | LTB4R Mean Expression Rate (Normalized as Fraction Control): 0.834 | LTBR Mean Expression Rate (Normalized as Fraction Control): 0.9644 | MAN2B1 Mean Expression Rate (Normalized as Fraction Control): 0.9706 | MAP2K7 Mean Expression Rate (Normalized as Fraction Control): 0.9421 | MCEMP1 Mean Expression Rate (Normalized as Fraction Control): 0.86 | MCOLN1 Mean Expression Rate (Normalized as Fraction Control): 0.9403 | MMP9 Mean Expression Rate (Normalized as Fraction Control): 0.9125 | MMP25 Mean Expression Rate (Normalized as Fraction Control): 0.8959 | MT2A Mean Expression Rate (Normalized as Fraction Control): 0.9216 | MUCL1 Mean Expression Rate (Normalized as Fraction Control): 0.6866 | MYO1G Mean Expression Rate (Normalized as Fraction Control): 0.9214 | NBEAL2 Mean Expression Rate (Normalized as Fraction Control): 0.9432 | NCF4 Mean Expression Rate (Normalized as Fraction Control): 0.9433 | NECTIN2 Mean Expression Rate (Normalized as Fraction Control): 0.9479 | NFAM1 Mean Expression Rate (Normalized as Fraction Control): 0.8948 | NFKB2 Mean Expression Rate (Normalized as Fraction Control): 0.9675 | NFKBID Mean Expression Rate (Normalized as Fraction Control): 0.9203 | NPLOC4 Mean Expression Rate (Normalized as Fraction Control): 0.9748 | NRROS Mean Expression Rate (Normalized as Fraction Control): 0.9202 | ORAI1 Mean Expression Rate (Normalized as Fraction Control): 0.9714 | OSCAR Mean Expression Rate (Normalized as Fraction Control): 0.772 | OSM Mean Expression Rate (Normalized as Fraction Control): 0.8306 | OTUB1 Mean Expression Rate (Normalized as Fraction Control): 0.9445 | PDXK Mean Expression Rate (Normalized as Fraction Control): 0.973 | PFKL Mean Expression Rate (Normalized as Fraction Control): 0.9804 | PI3 Mean Expression Rate (Normalized as Fraction Control): 0.9158 | PILRA Mean Expression Rate (Normalized as Fraction Control): 0.9457 | PLAUR Mean Expression Rate (Normalized as Fraction Control): 0.9104 | PLD2 Mean Expression Rate (Normalized as Fraction Control): 0.9215 | PRAM1 Mean Expression Rate (Normalized as Fraction Control): 0.8661 | PRKCD Mean Expression Rate (Normalized as Fraction Control): 0.9631 | PSTPIP1 Mean Expression Rate (Normalized as Fraction Control): 0.9409 | QSOX1 Mean Expression Rate (Normalized as Fraction Control): 0.9355 | RAB5C Mean Expression Rate (Normalized as Fraction Control): 0.9246 | RAC2 Mean Expression Rate (Normalized as Fraction Control): 0.9763 | RAPGEF1 Mean Expression Rate (Normalized as Fraction Control): 0.9459 | RARA Mean Expression Rate (Normalized as Fraction Control): 0.8926 | RELB Mean Expression Rate (Normalized as Fraction Control): 0.9647 | RHOG Mean Expression Rate (Normalized as Fraction Control): 0.9592 | RNF19B Mean Expression Rate (Normalized as Fraction Control): 0.9469 | S100A11 Mean Expression Rate (Normalized as Fraction Control): 0.9492 | SH2B2 Mean Expression Rate (Normalized as Fraction Control): 0.879 | SIRPA Mean Expression Rate (Normalized as Fraction Control): 0.9657 | SLC11A1 Mean Expression Rate (Normalized as Fraction Control): 0.8842 | SLC26A6 Mean Expression Rate (Normalized as Fraction Control): 0.9452 | SOCS1 Mean Expression Rate (Normalized as Fraction Control): 0.9289 | SP2 Mean Expression Rate (Normalized as Fraction Control): 0.9613 | SRC Mean Expression Rate (Normalized as Fraction Control): 0.9483 | STK10 Mean Expression Rate (Normalized as Fraction Control): 0.9606 | STX4 Mean Expression Rate (Normalized as Fraction Control): 0.949 | STXBP2 Mean Expression Rate (Normalized as Fraction Control): 0.8885 | SUPT6H Mean Expression Rate (Normalized as Fraction Control): 0.9568 | TCIRG1 Mean Expression Rate (Normalized as Fraction Control): 0.892 | TFE3 Mean Expression Rate (Normalized as Fraction Control): 0.9731 | TICAM1 Mean Expression Rate (Normalized as Fraction Control): 0.9382 | TNF Mean Expression Rate (Normalized as Fraction Control): 0.9281 | TNFRSF1B Mean Expression Rate (Normalized as Fraction Control): 0.9604 | TNFRSF4 Mean Expression Rate (Normalized as Fraction Control): 0.9427 | TNFRSF13B Mean Expression Rate (Normalized as Fraction Control): 0.8508 | TNFRSF14 Mean Expression Rate (Normalized as Fraction Control): 0.9239 | TNFSF9 Mean Expression Rate (Normalized as Fraction Control): 0.8416 | TOM1 Mean Expression Rate (Normalized as Fraction Control): 0.9211 | TRAF3IP2 Mean Expression Rate (Normalized as Fraction Control): 0.9472 | TREM1 Mean Expression Rate (Normalized as Fraction Control): 0.9084 | TRPM2 Mean Expression Rate (Normalized as Fraction Control): 0.9391 | TYK2 Mean Expression Rate (Normalized as Fraction Control): 0.9711 | TYROBP Mean Expression Rate (Normalized as Fraction Control): 0.9329 | UNC13D Mean Expression Rate (Normalized as Fraction Control): 0.9577 | ZC3H12A Mean Expression Rate (Normalized as Fraction Control): 0.9757 | ZP3 Mean Expression Rate (Normalized as Fraction Control): 0.8491 | ZYX Mean Expression Rate (Normalized as Fraction Control): 0.9139 | genes associated with TNF-a pro-inflammatory pathway (pathway analysis) (adjusted p-value=6.22E-3): down-regulated | NA Mean Expression Rate (Normalized as Fraction Control) (gene printed as NA): 0.9077
